Like-named read-outs stand apart in the source and are kept apart here. Values belong to the molecule of their own block, whether it stands above or below them.
Key:
HepG2 cells = assay: WST-1 assay; type: cell-based; conditions: 48 h (or 24 h)
Protocol: (§1) In vitro biological evaluation […]
WST-1 assay (Roche Diagnostics International AG, Rotkreuz, Schweiz) was performed according to manufacturer’s protocol and as described previously. In brief, HepG2 cells were seeded in DMEM high glucose, supplemented with SP (1 mM), penicillin (100 U/mL), streptomycin (100 µg/mL) and 10% FCS in 96-well plates (3∙10^4 cells/well). After 24 h, medium was changed to DMEM high glucose, supplemented with penicillin (100 U/mL), streptomycin (100 µg/mL) and 1% charcoal stripped FCS and cells were incubated with 4 or 16 (final […]
and DMEM/1% DMSO as negative controls. After 48 h (or 24 h), WST reagent (Roche Diagnostics International AG) was added to each well according to manufacturer’s instructions. After 45 min incubation, absorption (450 nm/ reference: 620 nm) was determined with a Tecan Infinite M200 luminometer (Tecan Deutschland GmbH). Each experiment was repeated at least three times in triplicates. […]

RXRα = test system: T1, RXRα; assay: Gal4-DBD-RXRα-LBD hybrid reporter gene assay; type: cell-based, human
T1 construct: expressed in transfected cells; host or cells: HEK293T
Description: The Gal4-fusion receptor plasmids pFA-CMV-hPPARα-LBD[34], pFA-CMV-hPPARγ-LBD[34], pFA-CMV-hPPARδ-LBD[34], pFA-CMV-hLXRα-LBD[35], pFA-CMV-hLXRβ-LBD[35], pFA-CMV-hRXRα-LBD[36], pFA-CMV-hRXRβ-LBD[36], pFA-CMV-hRXRγ-LBD[36], pFA-CMV-hRARα-LBD[36], pFA-CMV-hRARβ-LBD[36], pFA-CMV-hRARγ-LBD[36], pFA-CMV-hVDR-LBD[36] and pFA-CMV-hCAR-LBD[36] coding for the hinge region and ligand binding domain (LBD) of the canonical isoform of the respective nuclear receptor have been reported previously. pFR-Luc (Stratagene) was used as reporter plasmid and pRL-SV40 (Promega) for normalization of transfection efficiency and cell growth.
HEK293T cells were grown in DMEM high glucose, supplemented with 10% FCS, sodium pyruvate (1 mM), penicillin (100 U/mL) and streptomycin (100 μg/mL) at 37 °C and 5% CO2. The day before transfection, HEK293T cells were seeded in 96-well plates (2.5·10^4 cells/well). Before transfection, medium was changed to Opti-MEM without supplements. Transient transfection was carried out using Lipofectamine LTX reagent (Invitrogen) according to the manufacturer’s protocol with pFR-Luc (Stratagene), pRL-SV40 (Promega) and pFA-CMV-hNR-LBD. […] Luminescence was measured with an Infinite M200 luminometer (Tecan Deutschland GmbH) or a Tecan Spark 10 M luminometer (Tecan). […]

TGR5 = test system: T2, TGR5; assay: TGR5 assay (Eurofins); type: cell-based; conditions: 1 and 10 µM
T2 construct: Eurofins (Brussels, Belgium)

AMPKα1 = assay: Kinase inhibition assay (radiometric or HTRF); type: biochemical; conditions: 20 µM
AMPKα2 = assay: Kinase inhibition assay (radiometric or HTRF); type: biochemical; conditions: 20 µM
CaMKK2 = assay: Kinase inhibition assay (radiometric or HTRF); type: biochemical; conditions: 20 µM
TAK1 = assay: Kinase inhibition assay (radiometric or HTRF); type: biochemical; conditions: 20 µM
c-Kit = assay: Kinase inhibition assay (radiometric or HTRF); type: biochemical
PDGF-Rα = assay: Kinase inhibition assay (radiometric or HTRF); type: biochemical
[1] = Metabolism assay (liver microsomes); type: in vitro ADME, Sprague−Dawley rats; conditions: rat liver microsomes, 10 μM
Protocol: as §1
MgCl2). After 5 min, the reaction was started by the addition of 13 μL of microsome mix from the liver of Sprague−Dawley rats (Invitrogen; 20 mg protein/mL in 0.1 M phosphate buffer) in a shaking water bath at 37 °C.
The reaction was stopped by addition of 250 μL of ice-cold methanol at 0, 15, 30 and 60 min. The samples were diluted with 250 μL of DMSO and centrifuged at 10000 g for 5 min at 4 °C. The supernatants were analyzed and test compound was quantified by HPLC: mobile phase: MeOH 83%/H2O 17%/formic acid 0.1%; flow-rate:
1 mL/min; stationary phase: MultoHigh Phenyl phase, 5 μm, 250 × 4, precolumn, phenyl, 5 μm, 20 × 4; detection wavelength: 330 and 254 nm; injection volume: 50 μL. Control samples were performed to check the stability of 4 or 16 in the reaction mixture: first control was without NADPH, which is needed for the enzymatic activity of the microsomes, second control was with inactivated microsomes (incubated for 20 min at 90 °C), third control was […]
quantified by an external calibration curve, where data are expressed as means ± SEM of single determinations […]
obtained in three independent experiments. […]
as mean percent of remaining compound ± SEM; n=3): 4: 0 min: 100 ± 0%, 15 min: 86 ± 3%, 30 min: 74 ± 1%,

PKA = test system: PKA; parameters: method as in doi:10.1016/S0960-894X(96)00601-4, PMID 11162439; conditions: cited from earlier work
human FXR = biological target: T3, human FXR (Homo sapiens, UniProt Q96RI1); assay: Full-length FXR transactivation (reporter gene) assay in HeLa cells; type: cell-based; conditions: for Emax: HeLa; for EC50: read-out: hFXR: EC50; for FXR modulatory potency in words: SAR discussion
T3 construct: expressed in transfected cells; host or cells: HeLa
T3 sequence (Q96RI1 1-486): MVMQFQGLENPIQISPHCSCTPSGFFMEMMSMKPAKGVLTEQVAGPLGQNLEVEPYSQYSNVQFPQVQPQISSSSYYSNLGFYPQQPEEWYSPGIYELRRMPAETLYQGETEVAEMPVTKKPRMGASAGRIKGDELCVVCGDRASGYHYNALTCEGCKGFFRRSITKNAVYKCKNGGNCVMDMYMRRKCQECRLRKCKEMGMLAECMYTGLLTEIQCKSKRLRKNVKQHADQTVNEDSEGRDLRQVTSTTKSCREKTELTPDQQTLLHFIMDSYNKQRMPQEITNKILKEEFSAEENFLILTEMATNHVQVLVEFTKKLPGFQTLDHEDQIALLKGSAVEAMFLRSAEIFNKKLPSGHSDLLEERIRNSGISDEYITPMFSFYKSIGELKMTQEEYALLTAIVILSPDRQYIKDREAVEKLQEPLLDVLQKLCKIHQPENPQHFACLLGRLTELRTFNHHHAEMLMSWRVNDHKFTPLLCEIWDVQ
T3 sequence (P19793 1-462 partner): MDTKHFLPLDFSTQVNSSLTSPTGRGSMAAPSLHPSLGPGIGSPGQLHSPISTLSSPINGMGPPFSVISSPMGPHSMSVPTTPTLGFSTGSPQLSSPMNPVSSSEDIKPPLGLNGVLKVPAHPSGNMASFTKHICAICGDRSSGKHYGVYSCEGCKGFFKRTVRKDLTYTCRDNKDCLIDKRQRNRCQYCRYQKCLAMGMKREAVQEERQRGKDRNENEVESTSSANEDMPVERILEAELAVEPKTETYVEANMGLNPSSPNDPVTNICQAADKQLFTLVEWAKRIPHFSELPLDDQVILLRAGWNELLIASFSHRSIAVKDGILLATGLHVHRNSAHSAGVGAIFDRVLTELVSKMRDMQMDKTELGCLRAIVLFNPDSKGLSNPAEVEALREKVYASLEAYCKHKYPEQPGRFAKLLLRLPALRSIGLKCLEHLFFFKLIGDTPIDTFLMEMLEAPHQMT

[2] = full-length reporter gene assay, HeLa cells, mean ± SEM, n ≥ 3
[3] = full-length reporter gene assay

- WST-1, mean percent of untreated control (HepG2 cells; HepG2, 50 µM): 88 ± 5%
Structure (SMILES): C[C@H](CCC(=O)O)[C@H]1CC[C@H]2[C@@H]3[C@H](O)C[C@@H]4C[C@H](O)CC[C@]4(C)[C@H]3CC[C@]12C [compound 1, chenodeoxycholic acid, reference compound]

- RXR agonistic activity (activation of RXRα-Gal4 chimera receptor) (RXRα): neither activated
- Inhibition of AMPKα1 (AMPKα1): did not markedly inhibit
- Inhibition of AMPKα2 (AMPKα2): did not markedly inhibit
- Inhibition of CaMKK2 (CaMKK2): slight inhibition
- Inhibition of TAK1 (TAK1): slight inhibition
- Inhibition of c-Kit (c-Kit): potent inhibitor
- Inhibition of PDGF-Rα (PDGF-Rα): potent inhibitor
- WST-1, mean percent of untreated control (HepG2 cells; HepG2, 0.1 µM): 98 ± 9%
- WST-1, mean percent of untreated control (HepG2 cells; HepG2, 1 µM): 80 ± 9%
- WST-1, mean percent of untreated control (HepG2 cells; HepG2, 10 µM): 78 ± 3%
- WST-1, mean percent of untreated control (HepG2 cells; HepG2, 50 µM): 65 ± 1%
- WST-1, mean percent of untreated control (HepG2 cells; HepG2, 4 (10 µM) + 1 (50 µM)): 77 ± 7%
- mean percent of remaining compound ([1]; 0 min): 100 ± 0%
- mean percent of remaining compound ([1]; 15 min): 86 ± 3%
- mean percent of remaining compound ([1]; 30 min): 74 ± 1%
- mean percent of remaining compound ([1]; 60 min): 61 ± 3%
Structure (SMILES): Cc1ccc(NC(=O)c2ccc(CN3CCN(C)CC3)cc2)cc1Nc1nccc(-c2cccnc2)n1 [compound 4, imatinib, reference compound]
- TGR5 modulation (agonistic or antagonistic activity) (TGR5): no agonistic or antagonistic activity
- Activity on PKA (PKA): inactive

Structure (SMILES): CC(=O)Nc1ccc(C)c(Nc2nccc(-c3cccnc3)n2)c1.CC(=O)Nc1ccc(C)c(Nc2nccc(-c3cccnc3)n2)c1.CS(=O)(=O)O.CS(=O)(=O)O.CS(=O)(=O)O.CS(=O)(=O)O.O [compound 7]
- hFXR: EC50 (human FXR; [2]): inactive

Structure (SMILES): CS(=O)(=O)O.CS(=O)(=O)O.CS(=O)(=O)O.CS(=O)(=O)O.Cc1ccc(NC(=O)c2ccccc2)cc1Nc1nccc(-c2cccnc2)n1.Cc1ccc(NC(=O)c2ccccc2)cc1Nc1nccc(-c2cccnc2)n1.O [compound 8]
- Emax (human FXR; read-out: hFXR: max. rel. act.): 9%
- EC50 (human FXR; [2]): 0.45 ± 0.02 µM
- FXR modulatory potency in words (human FXR; [3]): submicromolar

Structure (SMILES): CS(=O)(=O)O.CS(=O)(=O)O.CS(=O)(=O)O.CS(=O)(=O)O.Cc1ccc(NC(=O)c2ccc3ccccc3c2)cc1Nc1nccc(-c2cccnc2)n1.Cc1ccc(NC(=O)c2ccc3ccccc3c2)cc1Nc1nccc(-c2cccnc2)n1.O.O.O [compound 9]
- Emax (human FXR; read-out: hFXR: max. rel. act.): 7.1%
- EC50 (human FXR; [2]): 0.46 ± 0.01 µM
- FXR modulatory potency in words (human FXR; [3]): submicromolar

Structure (SMILES): Cc1ccc(NC(=O)c2ccncc2)cc1Nc1nccc(-c2cccnc2)n1 [compound 10]
- Emax (human FXR; read-out: hFXR: max. rel. act.): 11.7%
- EC50 (human FXR; [2]): 3.5 ± 0.2 µM

Structure (SMILES): Cc1ccc(C(=O)Nc2ccc(C)c(Nc3nccc(-c4cccnc4)n3)c2)cc1 [compound 11]
- Emax (human FXR; read-out: hFXR: max. rel. act.): 8.1%
- EC50 (human FXR; [2]): 0.051 ± 0.001 µM

Structure (SMILES): CCc1ccc(C(=O)Nc2ccc(C)c(Nc3nccc(-c4cccnc4)n3)c2)cc1.CS(=O)(=O)O.CS(=O)(=O)O.O [compound 12]
- Emax (human FXR; read-out: hFXR: max. rel. act.): 7.9%
- EC50 (human FXR; [2]): 0.0064 ± 0.0004 µM
- FXR modulatory potency in words (human FXR; [3]): single-digit nanomolar activity

Structure (SMILES): Cc1ccc(NC(=O)c2ccc(C(C)(C)C)cc2)cc1Nc1nccc(-c2cccnc2)n1 [compound 13]
- Emax (human FXR; read-out: hFXR: max. rel. act.): 8.6%
- EC50 (human FXR; [2]): 0.58 ± 0.07 µM

Structure (SMILES): Cc1ccc(NC(=O)c2ccc(-c3ccccc3)cc2)cc1Nc1nccc(-c2cccnc2)n1 [compound 14]
- Emax (human FXR; read-out: hFXR: max. rel. act.): 7.1%
- EC50 (human FXR; [2]): 0.13 ± 0.02 µM

- Emax (human FXR; relative to FXR full agonist 3 at 3 µM, mean ± SEM, n ≥ 3, read-out: hFXR: max. rel. act. (converted)): 8.4%
- EC50 (human FXR; [2]): 1 ± 0.1 µM
Structure (SMILES): COc1ccc(C(=O)Nc2ccc(C)c(Nc3nccc(-c4cccnc4)n3)c2)cc1 [compound 15]

Structure (SMILES): Cc1ccc(N)cc1Nc1nccc(-c2cccnc2)n1 [compound 17, reference compound]
- Emax (human FXR; read-out: hFXR: max. rel. act.): 9.2%
- EC50 (human FXR; [2]): 17.8 ± 1.1 µM
